Test results taken from publication PMC5764323, “The etomidate analog ET-26 HCl retains superior myocardial performance: Comparisons with etomidate in vivo and in vitro” (PLoS ONE, 2018).
Where a name gives a salt, the structure may show the parent alone.

Target: T1, human ether-a-go-go-related gene (hERG) channel (Homo sapiens, UniProt Q12809)
T1 construct: gene KCNH2
Assay: whole-cell patch clamp, hERG tail current in HEK-293 cells
Type: cell-based
Description: whole-cell patch clamp, hERG tail current in HEK-293 cells on human ether-a-go-go-related gene (hERG) channel | etomidate inhibited the tail current of the hERG in a concentration-dependent manner | The etomidate analogue, ET-26 HCl, inhibited the hERG current in a similar concentration-dependent manner

T1 sequence (Q12809 whole entry): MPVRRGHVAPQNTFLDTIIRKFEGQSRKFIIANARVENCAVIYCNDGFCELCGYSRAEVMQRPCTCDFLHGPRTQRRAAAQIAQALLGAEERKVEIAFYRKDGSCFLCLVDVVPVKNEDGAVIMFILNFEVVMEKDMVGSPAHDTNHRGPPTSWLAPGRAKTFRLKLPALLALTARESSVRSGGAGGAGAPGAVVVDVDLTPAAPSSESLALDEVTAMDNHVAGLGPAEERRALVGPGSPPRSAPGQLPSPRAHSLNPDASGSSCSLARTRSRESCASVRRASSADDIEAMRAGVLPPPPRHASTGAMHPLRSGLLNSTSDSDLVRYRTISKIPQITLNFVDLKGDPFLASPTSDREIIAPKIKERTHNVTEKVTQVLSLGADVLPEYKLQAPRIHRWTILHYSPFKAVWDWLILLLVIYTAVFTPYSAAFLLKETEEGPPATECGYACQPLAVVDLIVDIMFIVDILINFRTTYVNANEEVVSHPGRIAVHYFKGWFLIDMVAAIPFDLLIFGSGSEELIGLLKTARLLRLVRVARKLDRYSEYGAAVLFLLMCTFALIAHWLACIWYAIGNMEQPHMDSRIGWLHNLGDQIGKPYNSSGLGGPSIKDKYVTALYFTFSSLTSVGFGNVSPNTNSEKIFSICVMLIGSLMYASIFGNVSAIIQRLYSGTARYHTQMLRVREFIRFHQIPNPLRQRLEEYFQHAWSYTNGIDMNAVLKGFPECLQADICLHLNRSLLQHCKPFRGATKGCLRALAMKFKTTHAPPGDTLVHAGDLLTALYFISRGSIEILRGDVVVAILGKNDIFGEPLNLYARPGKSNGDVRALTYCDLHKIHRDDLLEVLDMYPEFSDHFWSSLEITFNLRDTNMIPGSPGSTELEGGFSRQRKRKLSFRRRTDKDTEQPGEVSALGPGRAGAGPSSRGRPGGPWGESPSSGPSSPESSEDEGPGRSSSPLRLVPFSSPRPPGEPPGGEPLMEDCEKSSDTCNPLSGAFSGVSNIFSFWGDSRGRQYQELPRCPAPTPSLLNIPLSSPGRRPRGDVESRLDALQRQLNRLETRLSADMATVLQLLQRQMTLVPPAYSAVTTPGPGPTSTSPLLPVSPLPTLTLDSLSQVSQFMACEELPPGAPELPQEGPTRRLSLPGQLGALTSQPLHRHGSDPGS

| Structure (SMILES) | IC50 [µM] |
| --- | --- |
| CCOC(=O)c1cncn1[C@H](C)c1ccccc1 [etomidate] | 264 |
| COCCOC(=O)c1cncn1[C@H](C)c1ccccc1 [ET-26 HCl, (R)-2-methoxyethyl1-(1-phenylethyl)-1H-imidazole-5-carboxylate hydrochloride] | 743 |
